Key:
Assay in all cases: clonogenic assay (colony forming assay)
Format in all cases: cell-based, human
[1] = system: MAXF 401NL; conditions: MAXF 401/16, X186AM
Method: (§1) Solid human tumor xenografts growing subcutaneously in serial passages in thymus-aplastic nude mice (NMRI nu/nu strain, obtained from our own breeding facility) were removed under sterile conditions, the cells were mechanically disaggregated and subsequently incubated with an enzyme cocktail consisting of collagenase (1.2-1.8 U/ml, Worthington), DNAse (375 U/ml, Boehringer Mannheim) und hyaluronidase (29 U/ml, Boehringer Mannheim) in RPMI 1640 at 37° C. for 30 minutes. The cell mixture was passed through sieves of 200 μm and 50 μm mesh size and washed thereafter twice with PBS. The percentage of viable cells was determined in a Neubauer counting chamber using trypan blue exclusion.
(§2) The clonogenic assay was performed according to a modified two-layer soft agar assay described by Hamburger and Salmon (Hamburger and Salmon, Science, 197: 461463, 1977). The bottom layer consisted of 0.2 ml Iscoves' Modified Dulbecco's Medium with 20% fetal calf serum and 0.75% agar. 8×10^3 to 1,6×10^4 cells were added to 0.2 ml of the same culture medium together with 0.4% agar and placed in already coated 24-multiwell dishes. Test substances were applied by continuous exposure (drug overlay) in 0.2 ml medium. Every dish included six control wells containing the vehicle- and drug-treated groups in triplicate at six concentrations.
(§3) Cultures were incubated at 37° and 7% CO2 in a humidified atmosphere for 5 to 15 days (depending on the doubling time of the tumor stem cells) and monitored for colony growth using an inverted microscope. Within this period, in vitro tumor growth led to the formation of colonies with a diameter of ≧50 μm. At the time of maximum colony formation counts were performed with an automatic image analysis system (OMNICOM Fas IV, Biosys GmbH). 24 hours prior to this assay, vital colonies were stained with a sterile aqueous solution of 2-(4-iodophenyl)-3-(4-nitrophenyl)-5-phenyltetrazolium chloride (1 mg/ml, 100 μI/well). Drug effects were expressed in terms of the percentage of surviving cells, obtained by comparison of the mean number of colonies in the treated plates with the mean colony count of the untreated controls (test-versus-control-group value, T/C=colony countTreated Group*100/colony countControl Group).
(§4) Coefficient of variation in the control group ≦50%. IC50 and IC70 values were determined by plotting compound concentration versus cell survival rate. Mean IC50 and IC70 values were calculated according to the formula: [formula]
(§5) with x=specific tumor xenograft and n=total number of tumor xenografts studied. If an IC50 or IC70 value could not be determined within the examined dose range, the lowest or highest concentration studied was used for the calculation.

[2] = system: OVXF 1353; conditions: OVXF 1353/17; X217AM
Method: as §1, §2, §3, §4, §5

[3] = system: MAXF MCF7X; conditions: MAXF MCF7X/28; X218AM
Method: as §1, §2, §3, §4, §5

[4] = system: PRXF PC3M; conditions: PRXF PC3M/3; X189/AM
Method: as §1, §2, §3, §4, §5

[5] = system: LXFS 650; conditions: LXFS 650/9; X199AM
Method: as §1, §2, §3, §4, §5

[6] = system: RXF 393; conditions: RXF 393/9; X194AM
Method: as §1, §2, §3, §4, §5

[7] = system: RXF 423; conditions: RXF 423/16; X183AM
Method: as §1, §2, §3, §4, §5

O=[Se]([O-])[O-].[Na+].[Na+] [sodium selenite]
Test/control (%) at drug concentration [μM] 1. [1]: 74% | Test/control (%) at drug concentration [μM] 10. [1]: 66% | Test/control (%) at drug concentration [μM] 100. [1]: 8% | Test/control (%) at drug concentration [μM] .1 [1]: 53% | Test/control (%) class at drug concentration [μM] 1. [1]: − (− (T/C ≧ 50%)) | Test/control (%) class at drug concentration [μM] 10. [1]: − (− (T/C ≧ 50%)) | Test/control (%) class at drug concentration [μM] 100. [1]: +++ (+++ (T/C ≦ 10%)) | Test/control (%) class at drug concentration [μM] .1 [1]: − (− (T/C ≧ 50%)) | Test/control (%) at drug concentration [μM] .001 ([1]; s result of a dish): 67% | Test/control (%) at drug concentration [μM] .01 ([1]; s result of a dish): 81% | Test/control (%) class at drug concentration [μM] .001 ([1]; s result of a dish): − (− (T/C ≧ 50%)) | Test/control (%) class at drug concentration [μM] .01 ([1]; s result of a dish): − (− (T/C ≧ 50%)) | Test/control (%) at drug concentration [μM] 1. [2]: 90% | Test/control (%) at drug concentration [μM] 10. [2]: 100% | Test/control (%) at drug concentration [μM] 100. [2]: 0% | Test/control (%) at drug concentration [μM] .001 [2]: 96% | Test/control (%) at drug concentration [μM] .01 [2]: 91% | Test/control (%) at drug concentration [μM] .1 [2]: 100% | Test/control (%) class at drug concentration [μM] 1. [2]: − (− (T/C ≧ 50%)) | Test/control (%) class at drug concentration [μM] 10. [2]: − (− (T/C ≧ 50%)) | Test/control (%) class at drug concentration [μM] 100. [2]: +++ (+++ (T/C ≦ 10%)) | Test/control (%) class at drug concentration [μM] .001 [2]: − (− (T/C ≧ 50%)) | Test/control (%) class at drug concentration [μM] .01 [2]: − (− (T/C ≧ 50%)) | Test/control (%) class at drug concentration [μM] .1 [2]: − (− (T/C ≧ 50%)) | Test/control (%) at drug concentration [μM] 1. [3]: 78% | Test/control (%) at drug concentration [μM] 10. [3]: 97% | Test/control (%) at drug concentration [μM] 100. [3]: 0% | Test/control (%) at drug concentration [μM] .001 [3]: 93% | Test/control (%) at drug concentration [μM] .01 [3]: 85% | Test/control (%) at drug concentration [μM] .1 [3]: 90% | Test/control (%) class at drug concentration [μM] 1. [3]: − (− (T/C ≧ 50%)) | Test/control (%) class at drug concentration [μM] 10. [3]: − (− (T/C ≧ 50%)) | Test/control (%) class at drug concentration [μM] 100. [3]: +++ (+++ (T/C ≦ 10%)) | Test/control (%) class at drug concentration [μM] .001 [3]: − (− (T/C ≧ 50%)) | Test/control (%) class at drug concentration [μM] .01 [3]: − (− (T/C ≧ 50%)) | Test/control (%) class at drug concentration [μM] .1 [3]: − (− (T/C ≧ 50%)) | Test/control (%) at drug concentration [μM] 1. [4]: 85% | Test/control (%) at drug concentration [μM] 10. [4]: 38% | Test/control (%) at drug concentration [μM] 100. [4]: 1% | Test/control (%) at drug concentration [μM] .001 [4]: 91% | Test/control (%) at drug concentration [μM] .01 [4]: 91% | Test/control (%) at drug concentration [μM] .1 [4]: 89% | Test/control (%) class at drug concentration [μM] 1. [4]: − (− (T/C ≧ 50%)) | Test/control (%) class at drug concentration [μM] 10. [4]: + (+ (30% ≦ T/C < 50%)) | Test/control (%) class at drug concentration [μM] 100. [4]: +++ (+++ (T/C ≦ 10%)) | Test/control (%) class at drug concentration [μM] .001 [4]: − (− (T/C ≧ 50%)) | Test/control (%) class at drug concentration [μM] .01 [4]: − (− (T/C ≧ 50%)) | Test/control (%) class at drug concentration [μM] .1 [4]: − (− (T/C ≧ 50%)) | Test/control (%) at drug concentration [μM] 1. [5]: 84% | Test/control (%) at drug concentration [μM] 10. [5]: 109% | Test/control (%) at drug concentration [μM] 100. [5]: 16% | Test/control (%) at drug concentration [μM] .001 [5]: 100% | Test/control (%) at drug concentration [μM] .01 [5]: 100% | Test/control (%) at drug concentration [μM] .1 [5]: 98% | Test/control (%) class at drug concentration [μM] 1. [5]: − (− (T/C ≧ 50%)) | Test/control (%) class at drug concentration [μM] 10. [5]: − (− (T/C ≧ 50%)) | Test/control (%) class at drug concentration [μM] 100. [5]: ++ (++ (10% < T/C < 30%)) | Test/control (%) class at drug concentration [μM] .001 [5]: − (− (T/C ≧ 50%)) | Test/control (%) class at drug concentration [μM] .01 [5]: − (− (T/C ≧ 50%)) | Test/control (%) class at drug concentration [μM] .1 [5]: − (− (T/C ≧ 50%)) | Test/control (%) at drug concentration [μM] 1. [6]: 31% | Test/control (%) at drug concentration [μM] 10. [6]: 32% | Test/control (%) at drug concentration [μM] 100. [6]: 10% | Test/control (%) at drug concentration [μM] .001 [6]: 62% | Test/control (%) at drug concentration [μM] .01 [6]: 45% | Test/control (%) at drug concentration [μM] .1 [6]: 31% | Test/control (%) class at drug concentration [μM] 1. [6]: + (+ (30% ≦ T/C < 50%)) | Test/control (%) class at drug concentration [μM] 10. [6]: + (+ (30% ≦ T/C < 50%)) | Test/control (%) class at drug concentration [μM] 100. [6]: +++ (+++ (T/C ≦ 10%)) | Test/control (%) class at drug concentration [μM] .001 [6]: − (− (T/C ≧ 50%)) | Test/control (%) class at drug concentration [μM] .01 [6]: − (− (T/C ≧ 50%)) | Test/control (%) class at drug concentration [μM] .1 [6]: + (+ (30% ≦ T/C < 50%)) | Test/control (%) at drug concentration [μM] 1. [7]: 92% | Test/control (%) at drug concentration [μM] 10. [7]: 110% | Test/control (%) at drug concentration [μM] 100. [7]: 0% | Test/control (%) at drug concentration [μM] .001 [7]: 99% | Test/control (%) at drug concentration [μM] .01 [7]: 111% | Test/control (%) at drug concentration [μM] .1 [7]: 120% | Test/control (%) class at drug concentration [μM] 1. [7]: − (− (T/C ≧ 50%)) | Test/control (%) class at drug concentration [μM] 10. [7]: − (− (T/C ≧ 50%)) | Test/control (%) class at drug concentration [μM] 100. [7]: +++ (+++ (T/C ≦ 10%)) | Test/control (%) class at drug concentration [μM] .001 [7]: − (− (T/C ≧ 50%)) | Test/control (%) class at drug concentration [μM] .01 [7]: − (− (T/C ≧ 50%)) | Test/control (%) class at drug concentration [μM] .1 [7]: − (− (T/C ≧ 50%))

— patent publication US6656509B1, “Combination of selenium-containing compounds with cytostatics” (Biosyn Arzneimittel GmbH, priority 1998, dated 2003)
